Like-named read-outs stand apart in the source and are kept apart here. Marks after values point to notes of the source that are not given here.
How the values were obtained:
OS-1 = assay: Subcutaneous xenograft study; assay type: in vivo, mice; conditions: OS-1, 40 mg/kg twice per day for five days for four consecutive weeks
Experimental: C.B-17SC scid^-/- female mice (Taconic Farms, Germantown NY), were used to propagate subcutaneously implanted tumors. All mice were maintained under barrier conditions and experiments were conducted using protocols and conditions approved by the institutional animal care and use committee at University of Texas Health Science Center at San Antonio. Ten mice were used in each control or treatment group. Tumor volumes (cm^3) were determined and responses were determined using three activity measures as previously described.
The data were analyzed by using GraphPad Prism software (GraphPad Software, Inc., San Diego, CA). Data are presented as mean ± standard deviation. Data were analyzed by one-way analysis of variance (ANOVA), and Tukey’s post-test was used to assess differences between groups. Differences were considered statistically significant at p < 0.05. For in vivo xenograft models, an event was defined as four times the tumor volume at baseline similar to the PPTP criteria. […] The anti-tumor efficacy of LY5 was analyzed by using the statistical pipeline developed in PPTP [27].
Fig 6 Effects of LY5 are not mediated via STAT3 inhibition. […] After 72 hours of transfection, cells were harvested and analyzed for total (T) STAT3 and GAPDH protein expression by immunoblotting. […] Cell viability was then determined using Alamar Blue staining. […]

STAT6 = target: T1, STAT6 (Homo sapiens, UniProt P42226); assay: Cytokine-induced STAT6 phosphorylation in SJSA cells, Western blot; assay type: cell-based; conditions: induced by IFN-γ, IFN-α, or IL-4
T1 construct: endogenous in cells; host or cells: SJSA
T1 sequence (P42226 whole entry): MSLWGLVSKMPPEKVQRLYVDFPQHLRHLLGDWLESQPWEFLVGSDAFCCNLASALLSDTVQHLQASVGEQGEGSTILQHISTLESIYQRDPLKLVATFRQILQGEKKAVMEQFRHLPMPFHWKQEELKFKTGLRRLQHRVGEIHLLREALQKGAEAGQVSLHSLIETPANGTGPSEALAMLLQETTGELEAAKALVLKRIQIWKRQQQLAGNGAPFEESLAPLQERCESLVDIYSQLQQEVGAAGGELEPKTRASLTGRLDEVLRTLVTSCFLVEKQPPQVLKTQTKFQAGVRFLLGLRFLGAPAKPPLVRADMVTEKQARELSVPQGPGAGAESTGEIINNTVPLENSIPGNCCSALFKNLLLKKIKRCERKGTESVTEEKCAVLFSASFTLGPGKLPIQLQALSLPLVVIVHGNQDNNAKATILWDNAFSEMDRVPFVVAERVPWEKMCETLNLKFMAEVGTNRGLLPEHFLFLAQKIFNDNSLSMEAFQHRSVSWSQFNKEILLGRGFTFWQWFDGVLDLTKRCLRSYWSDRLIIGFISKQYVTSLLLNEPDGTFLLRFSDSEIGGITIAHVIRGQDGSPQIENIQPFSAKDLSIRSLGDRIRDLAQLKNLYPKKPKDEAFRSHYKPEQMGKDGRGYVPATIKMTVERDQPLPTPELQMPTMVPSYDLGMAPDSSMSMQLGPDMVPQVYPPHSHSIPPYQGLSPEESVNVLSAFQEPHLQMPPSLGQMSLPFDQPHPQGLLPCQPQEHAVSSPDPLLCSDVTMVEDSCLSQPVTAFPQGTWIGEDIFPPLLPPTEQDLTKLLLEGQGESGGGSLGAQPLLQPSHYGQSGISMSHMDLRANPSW
Experimental: (§1) Cell lysis, protein isolation and immunoblotting were performed as described previously. Twenty micrograms of protein were resolved using 4–12% Bis-Tris polyacrylamide gels. Gels were transferred to PVDF membranes and subjected to blocking and incubation with primary and secondary antibodies. The primary antibodies used in this study included: phospho-STAT3 (Tyr705, Cell Signaling, Boston, MA and Abcam, Cambridge, MA), total STAT3 (Cell Signaling and Abcam), phospho-STAT1 (Cell Signaling), total STAT1 (Cell Signaling), phospho-STAT2 (Cell Signaling), phospho-STAT4 (Cell Signaling), phospho-STAT6 (Cell Signaling), and GAPDH (Cell Signaling). Protein bands were detected using Western Lightning ® Plus Enhanced Chemiluminescence substrate (Perkin Elmer, Waltham, MA) and HyBlot CL ® Autoradiography film (Denville Scientific, Holliston, MA). The cytokines used in this study included: interferon gamma (IFN-γ, Cell Signaling), interferon alpha (IFN-α, Cell Signaling), interleukin-4 (IL-4, Cell Signaling), interleukin-6 (IL-6, Cell Signaling), and oncostatin M (OSM, Cell Signaling).
(§2) Fig 1 LY5 inhibits pSTAT3 in sarcoma cell lines. (A) The tumor cell lines RH30, EW8, and RD were treated with increasing concentrations of LY5 for 30 minutes. Cell lysates were collected for Western blotting of p-STAT3, total STAT3, and GAPDH. GAPDH was used as loading control. […]

[1] = PK in normal beagle dogs, IV and oral gavage; assay type: in vivo; conditions: plasma; for bioavailability: dog, po, read-out: F (oral bioavailability)
Experimental: LY5 was evaluated in two normal purpose-bred beagle dogs (female 8.8 kg; male 11.2 kg) receiving a single dose of 1mg/kg LY5 IV then orally by gavage 7 days later to establish the PK profile and assess the spectrum of clinical toxicities associated with LY5 administration. The oral dosing was repeated in the fed and fasted state. The starting dose was determined based on allometric scaling from the maximal tolerated dose studies performed in mice. Dogs were washed out for 30 days, and then given a dose of 25 mg in a capsule orally, followed by a 50 mg capsule dose 14 days later. Full PK sampling was performed over 24 hours following each dose of LY5. The dogs received LY5 and were used for the PK analysis but were not euthanized upon conclusion of the study.
The liquid chromatography-mass spectrometry system utilized for these analyses consisted of a Dionex Ultimate 3000 RSLCnano High Performance Liquid Chromatography system and a Thermo Finnigan Quantum Ultras EMR mass spectrometer with an electrospray ionization source. Positive ionization mode was used for both LY5 and the internal standard, hesperetin. Plasma samples were collected and analyzed by the OSU James Comprehensive Cancer Center Pharmacoanalytical Shared Resource. Pharsight Phoenix WinNonlin software using non-compartmental analysis was used to generate PK parameters including maximum plasma concentration (Cmax), amount of time that drug is present at Cmax (Tmax), and total area under the curve (AUC). AUC all and AUC last were calculated by linear trapezoidal method of concentration-time curve up to the last measured point. AUC inf-obs was calculated by log-linear extrapolation of the terminal phase beyond the last collection time. Bioavailability (F) was calculated for IP and PO administration routes. Plasma stability and liver microsomal stability of LY5 were also assessed through this shared resource.

STAT4 = target: T2, STAT4 (Homo sapiens, UniProt Q14765); assay: Cytokine-induced STAT4 phosphorylation in SJSA cells, Western blot; assay type: cell-based; conditions: induced by IFN-γ, IFN-α, or IL-4
T2 construct: endogenous in cells; host or cells: SJSA
T2 sequence (Q14765 whole entry): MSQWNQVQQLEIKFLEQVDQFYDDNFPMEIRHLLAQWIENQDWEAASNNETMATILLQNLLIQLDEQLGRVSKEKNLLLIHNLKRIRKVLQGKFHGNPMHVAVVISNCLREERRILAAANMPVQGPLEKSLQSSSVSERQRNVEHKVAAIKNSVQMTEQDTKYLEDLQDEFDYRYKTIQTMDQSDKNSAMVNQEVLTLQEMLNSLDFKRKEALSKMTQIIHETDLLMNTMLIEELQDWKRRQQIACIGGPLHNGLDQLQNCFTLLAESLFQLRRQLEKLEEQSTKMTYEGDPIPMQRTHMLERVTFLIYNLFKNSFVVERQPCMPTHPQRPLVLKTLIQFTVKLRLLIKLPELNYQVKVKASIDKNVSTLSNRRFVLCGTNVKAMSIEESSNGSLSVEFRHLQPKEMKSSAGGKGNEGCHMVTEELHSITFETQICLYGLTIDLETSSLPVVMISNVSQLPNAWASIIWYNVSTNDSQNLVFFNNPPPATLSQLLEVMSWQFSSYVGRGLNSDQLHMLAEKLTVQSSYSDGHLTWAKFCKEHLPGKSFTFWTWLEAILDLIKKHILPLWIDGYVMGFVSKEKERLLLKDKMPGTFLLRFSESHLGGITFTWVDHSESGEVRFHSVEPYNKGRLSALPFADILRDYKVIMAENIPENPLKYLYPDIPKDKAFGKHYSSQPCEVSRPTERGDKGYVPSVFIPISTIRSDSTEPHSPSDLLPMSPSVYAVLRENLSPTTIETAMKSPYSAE
Experimental: as §1, §2

[2] = female, Dog #2, PO fed, 1.28 mg/kg, dog vomited 10 min after dosing
[3] = female, Dog #2, PO w/ fast, 0.9 mg/kg
[4] = male, Dog #1, PO fed, 1.28 mg/kg
[5] = male, Dog #1, PO w/ fast, 0.9 mg/kg

Question: With NS(=O)(=O)c1cccc2c1C(=O)C=C(Nc1cccnc1)C2=O [LY5, 5,8-dioxo-6-(pyridin-3-ylamino)-5,8-dihydronaphthalene-1-sulfonamide] as the compound, how does the “Group Response” value (OS-1) read?
Answer: The value was “PD2^f (Progressive disease 2, >50% TGI, >25% tumor progression)”.

Question: And the “Survival (%)” value (OS-1)?
Answer: Its value is 90%.

Question: And the “phosphorylation of STAT6” value (STAT6)?
Answer: Its value is “did not inhibit”.

Question: What about the bioavailability ([1]; female, 0.9 mg/kg, Dog #2, PO w/ fast (fasted female dog)) of the same compound?
Answer: Its bioavailability is 44.3%.

Question: And the bioavailability ([1]; female, 1 mg/kg, Dog #2, PO w/ fast (fasted female dog))?
Answer: Its bioavailability is 44%.

Question: And the bioavailability ([1]; female, 1.28 mg/kg, Dog #2, PO fed, dog vomited 10 min after dosing)?
Answer: Its bioavailability is 5%.

Question: What about the AUC ([1]; female, Dog #2, IV, 0.97 mg/kg) of the same compound?
Answer: The AUC was 3.92 µM·h.

Question: What about the Cmax ([1]; female, Dog #2, IV, 0.97 mg/kg) of the same compound?
Answer: Its Cmax is 3220 nM.

Question: What about the AUC [1, 2] of the same compound?
Answer: The AUC was 0.258 µM·h.

Question: And the Cmax [1, 2]?
Answer: Its Cmax is 60.4 nM.

Question: What about the AUC [1, 3] of the same compound?
Answer: The AUC was 1.61 µM·h.

Question: And the Cmax [1, 3]?
Answer: The Cmax was 500 nM.

Question: And the bioavailability ([1]; male, 0.9 mg/kg, Dog #1, PO w/ fast (fasted male dog))?
Answer: The bioavailability was 51.6%.

Question: And the bioavailability ([1]; male, 1 mg/kg, Dog #1, PO fed)?
Answer: Its bioavailability is 14%.

Question: What about the bioavailability ([1]; male, 1 mg/kg, Dog #1, PO w/ fast (fasted male dog)) of the same compound?
Answer: Its bioavailability is 52%.

Question: What about the bioavailability ([1]; male, 1.28 mg/kg, Dog #1, PO fed) of the same compound?
Answer: The bioavailability was 13.7%.

Question: And the AUC ([1]; male, Dog #1, IV, 0.97 mg/kg)?
Answer: Its AUC is 5.1 µM·h.

Question: What about the Cmax ([1]; male, Dog #1, IV, 0.97 mg/kg) of the same compound?
Answer: The Cmax was 5590 nM.

Question: What about the AUC [1, 4] of the same compound?
Answer: Its AUC is 0.924 µM·h.

Question: What about the Cmax [1, 4] of the same compound?
Answer: Its Cmax is 206 nM.

Question: And the AUC [1, 5]?
Answer: The AUC was 2.44 µM·h.

Question: And the Cmax [1, 5]?
Answer: Its Cmax is 1280 nM.

Question: And the “phosphorylation of STAT4” value (STAT4)?
Answer: The value was “did not inhibit”.
